According to ChEMBL document CHEMBL1127975, “Balanced angiotensin II receptor antagonists. II.1,2 4-aminomethyl- and acylaminomethylimidazoles” (Bioorg Med Chem Lett, 1994):

Experiments:
[1] = target: T1, Type-2 angiotensin II receptor (Homo sapiens, UniProt P50052); test: In vitro binding affinity of compound against angiotensin II AT-2 receptor
T1 sequence (P50052 whole entry): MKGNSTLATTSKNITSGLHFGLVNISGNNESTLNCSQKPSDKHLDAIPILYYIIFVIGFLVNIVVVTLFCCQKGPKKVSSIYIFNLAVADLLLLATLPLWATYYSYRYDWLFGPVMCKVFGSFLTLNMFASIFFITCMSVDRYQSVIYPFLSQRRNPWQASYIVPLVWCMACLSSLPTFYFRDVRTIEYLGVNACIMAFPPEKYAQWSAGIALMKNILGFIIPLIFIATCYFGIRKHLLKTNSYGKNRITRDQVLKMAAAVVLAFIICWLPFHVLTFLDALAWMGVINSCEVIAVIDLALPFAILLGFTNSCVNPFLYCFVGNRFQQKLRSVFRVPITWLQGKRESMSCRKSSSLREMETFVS

[2] = target: T2, Type-1 angiotensin II receptor (Homo sapiens, UniProt P30556); test: In vitro binding affinity of compound against Angiotensin II receptor, type 1
T2 sequence (P30556 whole entry): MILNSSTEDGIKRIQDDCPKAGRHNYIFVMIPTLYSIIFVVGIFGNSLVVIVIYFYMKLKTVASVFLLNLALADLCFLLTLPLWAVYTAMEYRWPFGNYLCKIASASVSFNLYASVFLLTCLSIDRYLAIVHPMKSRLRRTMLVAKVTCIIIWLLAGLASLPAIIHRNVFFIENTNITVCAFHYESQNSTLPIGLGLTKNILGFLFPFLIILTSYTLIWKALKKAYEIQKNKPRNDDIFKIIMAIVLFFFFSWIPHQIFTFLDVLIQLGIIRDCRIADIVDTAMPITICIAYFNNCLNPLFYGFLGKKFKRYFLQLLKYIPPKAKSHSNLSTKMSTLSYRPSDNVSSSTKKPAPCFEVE

Rattus norvegicus [3] = test: Compound was tested for its antihypertensive activity after intravenous administration to renal hypertensive rats; format: functional
Rattus norvegicus [4] = test: Compound was tested for its antihypertensive activity after oral administration to renal hypertensive rats; format: functional

Row | Compound | IC50 [1] [nM] | IC50 [2] [nM] | ED30 (Rattus norvegicus [3]) [mg/kg] | ED30 (Rattus norvegicus [4]) [mg/kg]
1 | CCCc1nc(CN2CCN(c3ccccc3OC)CC2)c(C(=O)O)n1Cc1ccc(-c2ccccc2-c2nnn[nH]2)cc1 | 3000 | 2 |  | 
2 | CCCc1nc(CN(Cc2ccccc2)C(=O)OC(C)(C)C)c(C(=O)O)n1Cc1ccc(-c2ccccc2-c2nn[nH]n2)cc1 | 1000 | 9 |  | 
3 | CCCc1nc(CN(CC(=O)O)C(=O)C(c2ccccc2)c2ccccc2)c(C(=O)O)n1Cc1ccc(-c2ccccc2-c2nn[nH]n2)cc1 | 7000 | 100 |  | 
4 | CCCc1nc(CN(Cc2ccccc2)C(=O)OCC(C)C)c(C(=O)O)n1Cc1ccc(-c2ccccc2-c2nn[nH]n2)cc1 | 800 | 20 |  | 
5 | CCCc1nc(CN(Cc2ccccc2)C(=O)c2ccccc2)c(C(=O)O)n1Cc1ccc(-c2ccccc2S(=O)(=O)NC(=O)OCC(C)C)cc1 | 100 | 8 |  | 
6 | CCCCc1nc(Cl)c(CO)n1Cc1ccc(-c2ccccc2-c2nnn[n-]2)cc1.[K+] [LOSARTAN POTASSIUM] |  |  | 0.78 | 0.59
7 | CCCc1nc(CN2CCN(C(=O)C3CC3)CC2)c(C(=O)O)n1Cc1ccc(-c2ccccc2-c2nnn[nH]2)cc1 | 6000 | 10 |  | 
8 | CCCc1nc(CN2CCN(c3ccccc3)C[C@H]2Cc2ccccc2)c(C(=O)O)n1Cc1ccc(-c2ccccc2-c2nn[nH]n2)cc1 | 1000 | 10 |  | 
9 | CCCc1nc(CN2CCN(c3ccc(F)cc3)CC2)c(C(=O)O)n1Cc1ccc(-c2ccccc2-c2nn[nH]n2)cc1 | 80 | 3 |  | 
10 | CCCCCN(CCCCC)Cc1nc(CCC)n(Cc2ccc(-c3ccccc3-c3nnn[nH]3)cc2)c1C(=O)O | 200 | 2 |  | 
11 | CCCc1nc(CNC(=O)OC(C)(C)C)c(C(=O)O)n1Cc1ccc(-c2ccccc2-c2nn[nH]n2)cc1 | 4000 | 6 |  | 
12 | CCCc1nc(CN2CCN(c3ccccc3)C[C@H]2C)c(C(=O)O)n1Cc1ccc(-c2ccccc2-c2nnn[nH]2)cc1 | 70 | 2 |  | 
13 | CCCCN(Cc1ccccc1)Cc1nc(CCC)n(Cc2ccc(-c3ccccc3-c3nnn[nH]3)cc2)c1C(=O)O | 90 | 3 | 0.04 | 3
14 | CCCc1nc(CNC(=O)C(c2ccccc2)c2ccccc2)c(C(=O)O)n1Cc1ccc(-c2ccccc2-c2nn[nH]n2)cc1 | 600 | 10 |  | 
15 | CCCc1nc(CN(Cc2ccccc2)C(=O)Cc2ccccc2)c(C(=O)O)n1Cc1ccc(-c2ccccc2-c2nn[nH]n2)cc1 | 400 | 20 |  | 
16 | CCCc1nc(CN2CCN(C(=O)C(c3ccccc3)c3ccccc3)CC2)c(C(=O)O)n1Cc1ccc(-c2ccccc2-c2nn[nH]n2)cc1 | 1000 | 10 |  | 
17 | CCCc1nc(CN2CCN(C(=O)c3ccccc3)CC2)c(C(=O)O)n1Cc1ccc(-c2ccccc2-c2nnn[nH]2)cc1 | > 10000 | 5 |  | 
18 | CCCc1nc(CN(Cc2ccccc2)C(=O)Nc2ccccc2)c(C(=O)O)n1Cc1ccc(-c2ccccc2-c2nnn[nH]2)cc1 | 300 | 2 |  | 
19 | CCCc1nc(CN2CCC(c3ccccc3)CC2)c(C(=O)O)n1Cc1ccc(-c2ccccc2-c2nn[nH]n2)cc1 | 400 | 2 |  | 

Second part, led by results:

Row | IC50 [1] [nM] | IC50 [2] [nM] | Compound | ED30 (Rattus norvegicus [3]) [mg/kg] | ED30 (Rattus norvegicus [4]) [mg/kg]
20 | 600 | 10 | CCCc1nc(CN2CCN(c3ccccn3)CC2)c(C(=O)O)n1Cc1ccc(-c2ccccc2S(=O)(=O)NC(=O)C2CC2)cc1 |  | 
21 | 1000 | 2 | CCCc1nc(CN2CCN(c3ccccn3)CC2)c(C=O)n1Cc1ccc(-c2ccccc2-c2nn[nH]n2)cc1 |  | 
22 | 200 | 0.9 | CCCc1nc(CN2CCN(c3ccccn3)CC2)c(C(=O)O)n1Cc1ccc(-c2ccccc2-c2nn[nH]n2)cc1F |  | 
23 | 500 | 20 | CCc1nc(CN2CCN(c3ccccn3)CC2)c(C(=O)O)n1Cc1ccc(-c2ccccc2-c2nnn[nH]2)cc1 |  | 
24 | 700 | 2 | CCCCc1nc(CN2CCN(c3ccccn3)CC2)c(C(=O)O)n1Cc1ccc(-c2ccccc2-c2nn[nH]n2)cc1 |  | 
25 | 600 | 2 | CCCc1nc(CN2CCN(c3ccccc3Cl)CC2)c(C(=O)O)n1Cc1ccc(-c2ccccc2-c2nnn[nH]2)cc1 |  | 
26 | 60 | 4.2 | CCCc1nc(CN2CCN(c3ccccn3)CC2)c(C(=O)O)n1Cc1ccc(-c2ccccc2-c2nn[nH]n2)cc1 | 0.003 | > 3
27 | 80 | 2 | CCCc1nc(CN2CCN(c3ncccn3)CC2)c(C(=O)O)n1Cc1ccc(-c2ccccc2-c2nn[nH]n2)cc1 |  | 
28 | 20 | 6 | CCCCCC(=O)NS(=O)(=O)c1ccccc1-c1ccc(Cn2c(CCC)nc(CN3CCN(c4ccccn4)CC3)c2C(=O)O)cc1 | 0.13 | > 10
29 | 700 | 2 | CCCc1nc(C(=O)N2CCN(c3ccccn3)CC2)c(C(=O)O)n1Cc1ccc(-c2ccccc2-c2nnn[nH]2)cc1 | 0.018 | ~3
30 | 90 | 6 | CCCCOC(=O)NS(=O)(=O)c1ccccc1-c1ccc(Cn2c(CCC)nc(CN3CCN(c4ccccn4)CC3)c2C(=O)O)cc1 |  | 
31 | > 10000 | 10 | CCCc1nc(CN2CCN(c3ccccn3)CC2)c(CO)n1Cc1ccc(-c2ccccc2-c2nn[nH]n2)cc1 |  | 
32 | 50 | 5 | CCCc1nc(CN2CCN(c3ccccc3)CC2)c(C(=O)O)n1Cc1ccc(-c2ccccc2-c2nnn[nH]2)cc1 | 0.004 | > 3
33 | 500 | 6 | CCCc1nc(CN2CCN(c3ccccn3)CC2)c(C(=O)O)n1Cc1ccc(-c2ccccc2S(=O)(=O)NC(=O)c2ccccc2)cc1 |  | 
34 | 90 | 2 | CCCCN(Cc1nc(CCC)n(Cc2ccc(-c3ccccc3S(=O)(=O)NC(=O)CCC)cc2)c1C(=O)O)C(=O)CCC | 0.18 | 1.65
